Our source for the IC50 values is US20250115607A1, “PYRIDINE DERIVATIVES” (Hoffmann-La Roche Inc., priority 2022, published 2025).

Holding throughout (type): biochemical
One test deals with SIK1 (Homo sapiens (Human), UniProt P57059). The experiment in a line: Phosphorylation assay SIK1 (RapidFire mass spectrometry). The conditions noted are these: 5 nM SIK1, CHK-peptide, ATP, 30 min pre-incubation, 45 min incubation; read-out: SIK1 RF IC50. As to the method:
(§1) In the presence of SIK2 (resp. SIK1 or SIK3) and ATP the CHK-peptide ([…] with C-terminal arginine amide modification) were phosphorylated at one of the four feasible serine's. Only one phosphorylation is observed under the assay conditions. 60 nl of each compound dilution series (12 point; dilution factor 3, generally 30 μM to 170 pM) in DMSO were transferred by acoustic dispensing to the assay plate and 30 minutes pre-incubated (ambient temperature) after the addition of 5 μl SIK1 (5 nM) resp. 5 μl SIK2 (0.5 nM) or 7 μl SIK3 (1.5 nM) in assay-buffer (12.5 mM HEPES (pH 7.0), 10 mM magnesium acetate, 0.005% BSA). 10 μM CHK-peptide solution and 5 μl of 100 μM ATP for SIK1 & SIK2 resp. 3 μl for SIK3 in assay-buffer were added and incubated ambient for 45 minutes. 40 μl of 0.125% formic acid in water were added to quench the reaction. RapidFire (RF) Mass Spectrometry was utilized for data generation as described below. The multiple charged species (3-5 charges) for the phosphorylated and non-phosphorylated form measured by MRM (Multiple Reaction Monitoring; API5000 or 6500+) or EIC (Extracted Ion Current; QToF) were summed up and the ratio calculated (sum phosphorylated species/sum all species) for data evaluation. Normalization was performed by Genedata software based on the non-inhibition control DMSO and the commercially available STK inhibitor @1 μM YKL-05-099 (CAS number 1936529-65-5). The results of the assay are expressed in half-maximal inhibitory concentrations (IC50s) and are summarized below in Table 1.
(§2) Samples were aspirated by vacuum for max. 600 ms and loaded to C4-cartridge (Agilent; #G9203A) for 3000 ms@1.5 ml/min with 0.1% formic acid in water. Afterwards samples were transferred to the API5000 (API6500+) or QToF mass spectrometer for 4000 ms@1.25 ml/min with 90% acetonitrile; 10% water; 0.007% TFA; 0.093 formic acid. The cartridge was reconditioned for additional 500 ms with 0.1% formic acid in water.
(§3) All MS analyses using the following MS-setup in MRM mode: Electrospray positive; Ion Spray Voltage: 4000V; Temperature: 550° C.; Collision Gas: 5; Curtain Gas: 15; Gas 1: 40; Gas 2: 42; EP: 10. DP=declustering potential; CE=collision energy; CXP=cell exit potential.
(§4) All MS analyses using the following MS-setup in Mode MS: Dual AJS Electrospray positive; VCap: 3000V; Drying & Sheath gas: 340° C.@81/min; Nebulizer: 60 psig; Nozzle Voltage: 2000V; Fragmentor: 130V; Skimmer: 35V; Oct1 RF Vpp: 700V; Ref masses on@5 spectra/s

In the next test the target is SIK2 (Homo sapiens (Human), UniProt Q9H0K1). The experiment in a line: Phosphorylation assay SIK2 (RapidFire mass spectrometry). The following applies: 0.5 nM SIK2, CHK-peptide, ATP, 30 min pre-incubation, 45 min incubation; read-out: SIK2 RF IC50. The protocol: as §1, §2, §3, §4
For another test, the target named is SIK3 (Homo sapiens (Human), UniProt Q9Y2K2). The experiment in a line: Phosphorylation assay SIK3 (RapidFire mass spectrometry). The conditions noted are these: 1.5 nM SIK3, CHK-peptide, ATP, 30 min pre-incubation, 45 min incubation; read-out: SIK3 RF IC50. As to the method: as §1, §2, §3, §4
Chain of SIK3 (Q9Y2K2 whole entry): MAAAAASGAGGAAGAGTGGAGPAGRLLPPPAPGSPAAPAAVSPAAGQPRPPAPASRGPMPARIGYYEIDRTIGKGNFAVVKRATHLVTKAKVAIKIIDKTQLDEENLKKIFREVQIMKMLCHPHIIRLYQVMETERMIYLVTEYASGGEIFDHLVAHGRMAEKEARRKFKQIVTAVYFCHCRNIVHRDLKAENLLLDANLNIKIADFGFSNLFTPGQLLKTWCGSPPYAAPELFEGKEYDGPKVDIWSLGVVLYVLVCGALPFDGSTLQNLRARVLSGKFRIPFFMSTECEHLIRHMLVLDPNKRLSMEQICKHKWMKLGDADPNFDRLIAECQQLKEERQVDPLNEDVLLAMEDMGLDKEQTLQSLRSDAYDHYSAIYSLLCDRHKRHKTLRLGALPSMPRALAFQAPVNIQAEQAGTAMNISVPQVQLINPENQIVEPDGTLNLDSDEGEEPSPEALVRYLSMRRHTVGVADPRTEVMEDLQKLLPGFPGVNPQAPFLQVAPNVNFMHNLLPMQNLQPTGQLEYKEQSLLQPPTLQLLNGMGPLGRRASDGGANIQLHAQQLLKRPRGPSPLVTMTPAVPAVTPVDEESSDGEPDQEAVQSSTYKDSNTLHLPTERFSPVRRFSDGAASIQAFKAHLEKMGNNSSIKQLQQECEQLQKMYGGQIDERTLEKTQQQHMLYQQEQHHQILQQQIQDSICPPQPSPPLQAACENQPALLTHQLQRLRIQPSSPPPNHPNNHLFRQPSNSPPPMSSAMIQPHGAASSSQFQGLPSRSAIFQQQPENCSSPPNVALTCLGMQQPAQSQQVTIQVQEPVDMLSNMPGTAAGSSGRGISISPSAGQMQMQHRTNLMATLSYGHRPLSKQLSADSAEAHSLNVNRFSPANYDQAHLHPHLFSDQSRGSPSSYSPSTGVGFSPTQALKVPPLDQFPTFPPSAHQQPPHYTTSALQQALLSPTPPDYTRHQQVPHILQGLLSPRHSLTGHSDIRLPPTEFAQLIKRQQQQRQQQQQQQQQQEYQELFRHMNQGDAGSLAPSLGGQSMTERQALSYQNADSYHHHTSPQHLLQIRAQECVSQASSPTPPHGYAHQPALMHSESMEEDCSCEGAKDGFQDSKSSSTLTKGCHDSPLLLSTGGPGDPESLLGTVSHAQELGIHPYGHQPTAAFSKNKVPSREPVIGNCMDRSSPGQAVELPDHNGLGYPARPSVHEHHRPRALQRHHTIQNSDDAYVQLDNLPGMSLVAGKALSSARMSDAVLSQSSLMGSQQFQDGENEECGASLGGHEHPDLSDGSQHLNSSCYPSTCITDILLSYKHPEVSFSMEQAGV

Chain of SIK1 (P57059 whole entry): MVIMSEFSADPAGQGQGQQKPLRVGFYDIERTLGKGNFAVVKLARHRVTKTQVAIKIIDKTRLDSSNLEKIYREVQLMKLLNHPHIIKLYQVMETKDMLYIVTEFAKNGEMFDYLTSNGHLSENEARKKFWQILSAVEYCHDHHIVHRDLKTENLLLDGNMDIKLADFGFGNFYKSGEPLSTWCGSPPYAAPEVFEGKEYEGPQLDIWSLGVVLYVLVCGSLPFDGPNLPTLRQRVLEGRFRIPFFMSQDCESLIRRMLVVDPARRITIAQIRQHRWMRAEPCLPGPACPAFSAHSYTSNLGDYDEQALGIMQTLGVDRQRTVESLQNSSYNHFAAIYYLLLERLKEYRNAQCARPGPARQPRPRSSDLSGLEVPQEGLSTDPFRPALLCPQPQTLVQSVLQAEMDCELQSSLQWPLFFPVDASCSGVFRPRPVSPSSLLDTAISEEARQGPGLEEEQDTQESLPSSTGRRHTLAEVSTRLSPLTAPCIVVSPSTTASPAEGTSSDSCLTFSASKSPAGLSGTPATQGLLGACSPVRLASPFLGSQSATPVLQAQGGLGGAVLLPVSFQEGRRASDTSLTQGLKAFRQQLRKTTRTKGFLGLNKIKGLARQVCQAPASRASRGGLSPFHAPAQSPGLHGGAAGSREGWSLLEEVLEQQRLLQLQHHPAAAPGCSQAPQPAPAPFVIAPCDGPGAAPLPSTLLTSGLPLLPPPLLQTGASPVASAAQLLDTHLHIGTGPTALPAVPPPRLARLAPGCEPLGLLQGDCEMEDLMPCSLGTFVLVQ
Chain of SIK2 (Q9H0K1 whole entry): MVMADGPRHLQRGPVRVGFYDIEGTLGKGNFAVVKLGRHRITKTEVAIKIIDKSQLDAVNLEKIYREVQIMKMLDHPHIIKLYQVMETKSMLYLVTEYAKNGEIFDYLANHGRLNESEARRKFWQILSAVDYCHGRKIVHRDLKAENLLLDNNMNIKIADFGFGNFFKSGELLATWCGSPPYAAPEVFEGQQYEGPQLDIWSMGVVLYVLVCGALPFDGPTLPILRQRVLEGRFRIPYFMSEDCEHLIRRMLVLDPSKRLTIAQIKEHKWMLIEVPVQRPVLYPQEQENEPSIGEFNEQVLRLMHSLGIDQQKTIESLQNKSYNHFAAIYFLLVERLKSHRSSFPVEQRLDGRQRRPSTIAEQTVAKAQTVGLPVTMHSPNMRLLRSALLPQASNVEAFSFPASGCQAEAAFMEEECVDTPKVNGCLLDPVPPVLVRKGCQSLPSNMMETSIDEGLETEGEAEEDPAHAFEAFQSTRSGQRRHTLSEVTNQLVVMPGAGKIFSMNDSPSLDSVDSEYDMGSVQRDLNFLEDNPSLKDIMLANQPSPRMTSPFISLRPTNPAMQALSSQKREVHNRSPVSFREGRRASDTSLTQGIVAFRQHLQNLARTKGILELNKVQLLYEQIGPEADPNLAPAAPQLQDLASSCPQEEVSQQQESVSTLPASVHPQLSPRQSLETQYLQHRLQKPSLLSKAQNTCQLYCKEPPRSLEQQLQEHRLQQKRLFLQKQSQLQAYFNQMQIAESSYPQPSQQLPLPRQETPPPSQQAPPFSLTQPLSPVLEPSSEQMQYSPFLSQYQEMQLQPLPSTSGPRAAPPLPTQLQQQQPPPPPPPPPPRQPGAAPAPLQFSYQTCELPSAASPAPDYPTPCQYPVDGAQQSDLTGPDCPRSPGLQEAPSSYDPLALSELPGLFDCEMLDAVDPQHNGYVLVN

For `CC(=O)c1ccc(-n2cnc3cc(N4CCOc5cc(C)nnc54)ncc32)nc1-n1nc(C#N)cc1C` [Example 6, 1-[3-Acetyl-6-[6-(3-methyl-6,7-dihydropyridazino[4,3-b][1,4]oxazin-8-yl)imidazo[4,5-c]pyridin-3-yl]-2-pyridyl]-5-methyl-pyrazole-3-carbonitrile], the IC50 (usually the midpoint of a concentration-inhibition curve) at SIK1 came out at 17400 nM; at SIK2, 2540 nM; at SIK3, 3290 nM.
Turning to `Cc1ccc(Nc2cc3ncn(-c4ccc(C(C)O)c(-c5cn(CC(F)(F)F)nc5C)n4)c3cn2)nn1` (stereo not drawn) [Example 4, 1-[6-[6-[(6-Methylpyridazin-3-yl)amino]imidazo[4,5-c]pyridin-3-yl]-2-[3-methyl-1-(2,2,2-trifluoroethyl)pyrazol-4-yl]-3-pyridyl]ethanol], the figures for the 50% inhibitory concentration (IC50) at SIK1, at SIK2 and on SIK3 were 396 nM, 3 nM and 3 nM, respectively.
In the case of `Cc1ccc(Nc2cc3ncn(-c4ccc(C(C)O)c(-n5nc(C(F)F)cc5C)n4)c3cn2)nn1` (stereo not drawn) [Example 7, 1-[2-[3-(difluoromethyl)-5-methyl-pyrazol-1-yl]-6-[6-[(6-methylpyridazin-3-yl)amino]imidazo[4,5-c]pyridin-3-yl]-3-pyridyl]ethanol], the IC50 amounted to 879 nM at SIK1, 16 nM at SIK2 and 7 nM on SIK3.
`Cc1ccc(Nc2cc3ncn(-c4ccc(C(C)O)c(-n5nc(C#N)cc5C)n4)c3cn2)cn1` (stereo not drawn) [Example 3, 1-[3-(1-Hydroxyethyl)-6-[6-[(6-methyl-3-pyridyl)amino]imidazo[4,5-c]pyridin-3-yl]-2-pyridyl]-5-methyl-pyrazole-3-carbonitrile]: the half-maximal inhibitory concentration (IC50) amounted to 78 nM on SIK1, 22 nM at SIK2 and 22 nM at SIK3.
As for `Cc1ccc(Nc2cc3ncn(-c4ccc(C(C)O)c(-n5nc(C#N)cc5C)n4)c3cn2)nn1` (stereo not drawn) [Example 2, 1-[3-(1-Hydroxyethyl)-6-[6-[(6-methylpyridazin-3-yl)amino]imidazo[4,5-c]pyridin-3-yl]-2-pyridyl]-5-methyl-pyrazole-3-carbonitrile], the results for the half-maximal inhibitory concentration (IC50) on SIK1, at SIK2 and on SIK3 were 366 nM, 5 nM and 3 nM, respectively.
Take `CC(=O)c1ccc(-n2cnc3cc(Nc4ccc(C)nn4)ncc32)nc1-n1nc(C#N)cc1C` [Example 1, 1-[3-Acetyl-6-[6-[(6-methylpyridazin-3-yl)amino]imidazo[4,5-c]pyridin-3-yl]-2-pyridyl]-5-methyl-pyrazole-3-carbonitrile]: the half-maximal inhibitory concentration (IC50) at SIK1 turned out to be 4520 nM; at SIK2, 42 nM; on SIK3, 121 nM.
